Results from patent US11142501B2, “Prodrugs of monomethyl fumarate” (IXCHEL PHARMA, LLC, priority 2019, dated 2021).
Counter-ions that a name gives are not always drawn.

Tests used:
[1] = Rat plasma conversion (ex-vivo); format: in vitro ADME
[2] = Stability of prodrugs on storage at RT and RF; format: physicochemical; settings: in % (unit assumed); for Stability, value at 0 DAY: 0 day (14 Nov. 2018), dissolved in acetonitrile for analysis; for Stability, value at 7 DAY, RT / Stability, value at 15 DAY, RT: storage at room temp/25° C.; for Stability, value at 7 DAY, RT / Stability, value at 7 DAY, RF / Stability, value at 15 DAY, RT / Stability, value at 15 DAY, RF: acetonitrile for analysis; for Stability, value at 7 DAY, RF / Stability, value at 15 DAY, RF: storage under refrigeration/4° C.
Method: Compounds dissolved in ACN for analysis RT: Room temp/25° C. RF: Refrigeration/4° C.

[3] = Oral (PO) pharmacokinetics study in SD rat; format: in vivo
Method: Exemplary compounds of the present invention were subjected to oral (PO) Pharmacokinetics (PK) study in SD rat and data was compared with parent MMF. 6 overnight fasted male SD rats were dosed with MMF dose of 10 mpk and test compounds at the desired dose level of 10 mpk equivalent of MMF by PO route. Dosing vehicle used was MQ water. Blood was collected at different time points by retro orbital route. Plasma samples were stored at −80° C. for LC-MS analysis. Animals were sacrificed post final blood collection. Dosing and collection was done as per the in vivo protocol given below. PK analysis was done using LC-MS (ABI3200). Data analysis was performed using PRISM software to determine PK parameters such Cmax (the maximum (or peak) serum concentration that a drug achieves in a specified compartment or test area of the body after the drug has been administrated and before the administration of a second dose), Tmax (time at which the Cmax is observed) AUC (definite integral in a plot of drug concentration in blood plasma vs. time), MRT (Mean Residence Time) and t1/2 (The time required for one half of the total amount of a particular substance in a biological system to be degraded by biological processes when the rate of removal is nearly exponential)

Solubility = format: physicochemical; settings: water; compared with monomethyl fumarate

SMILES | Rat plasma conversion [1] | Stability, value at 0 DAY [2] | Stability, value at 7 DAY, RT [2] | Stability, value at 7 DAY, RF [2] | Stability, value at 15 DAY, RT [2] | Stability, value at 15 DAY, RF [2] | pharmacokinetics in delivery of monomethyl fumarate (MMF) in comparison with direct administration of MMF ([3]; FIG. 1 legend, in words) | AUC in rat plasma as compared to the parent drug MMF ([3]; SD rat, PO, in words) | T1/2 in rat plasma as compared to the parent drug MMF ([3]; SD rat, PO, in words) | Solubility (Solubility) | conversion in vivo ([3]; in vivo, rat)
COC(=O)/C=C/C(=O)OC[n+]1cccc(C(N)=O)c1.[I-] [SPR11574, (E)-3-carbamoyl-1-(((4-methoxy-4-oxobut-2-enoyl)oxy)methyl) pyridin-1-ium iodide] | convert instantly | 97.81 | 97.61 | 97.61 | 97.21 | 97.95 |  |  |  |  | 
CNC(=O)c1ccc[n+](COC(=O)/C=C/C(=O)OC)c1.[I-] [SPR11575, (E)-1-(((4-methoxy-4-oxobut-2-enoyl)oxy)methyl)-3-(methylcarbamoyl) pyridin-1-ium iodide] | convert instantly | 97.7 | 97.61 | 97.82 | 97.06 | 97.66 | enhanced | better enhanced | better enhanced |  | 
COC(=O)/C=C/C(=O)O [MMF, monomethyl fumarate] |  |  |  |  |  |  |  |  |  | highly soluble | 
COC(=O)/C=C/C(=O)OC[n+]1cccc(C(=O)N(C)C)c1.[I-] [SPR11576, (E)-3-(dimethylcarbamoyl)-1-(((4-methoxy-4-oxobut-2-enoyl)oxy)methyl)pyridin-1-ium iodide] | convert instantly | 97.68 | 96.97 | 97.7 | 96.28 | 97.82 |  |  |  |  | 
COC(=O)/C=C/C(=O)OCOC(=O)c1cccnc1 [SPR11577, methyl((nicotinoyloxy) methyl)fumarate] | convert instantly | 99.35 | 99.79 | 99.89 | 100 | 100 |  |  |  |  | 
COC(=O)/C=C/C(=O)OCOC(=O)c1ccc[n+](C)c1.[I-] [SPR11578, (E)-3-((((4-methoxy-4-oxobut-2-enoyl)oxy)methoxy)carbonyl)-1-methylpyridin-1-ium iodide] | doesn't convert completely |  |  |  |  |  |  |  |  |  | doesn't convert completely
